What was measured:
NAD(P)H oxidase = NAD(P)H oxidase ROS/H2O2 production control test without mitochondria; format: biochemical; details: no mitochondria; NAD(P)H oxidase + NADH; results not shown
[1] = tested on: isolated mitochondria from rat heart; experiment: Mitochondrial respiration / oxidative phosphorylation (oxygraph); format: biochemical; details: AOL 5 to 80 μM
Experimental: Male Wistar rats (250-325 g; obtained from Janvier Labs, Le Genest-Saint-Isle, France) were killed by stunning and cervical dislocation, and the heart was quickly removed and washed in cold isolation medium containing 100 mM sucrose, 180 mM KCl, 50 mM Tris, 5 mM MgCl2, 10 mM EDTA, and 0.1% (w/v) deffated BSA (pH 7.2).
Isolation of heart mitochondria was performed in a cold chamber. Before homogenization, hearts (about 1.5 g) were minced with scissors and treated for 5 min in 5 mL of the same medium supplemented with protease (2 mg of bacterial proteinase type XXIV per mL of isolation buffer) with stirring. The tissue suspension was poured into a 50-ml glass Potter homogenizer, diluted with 20 mL of isolation buffer, then homogenized for 3 min using a motorized Teflon pestle. The homogenate was filtered through bolting cloth (Sefar Nitex) to remove debris, and centrifuged at 8,000 g for 10 minutes. The resulting pellet was rinsed with 5 mL of isolation buffer, resuspended in 25 mL of the same buffer, then subjected to low speed centrifugation (400 g) for 8 min. The resulting supernatant was centrifuged twice at 7,000 g for 15 min to yield a washed mitochondrial pellet that was gently resuspended in 150 μL of isolation buffer. Protein concentration was determined by the Bradford method (Sigma, kit # B6916) using BSA as standard. Mitochondria were kept on ice at a final concentration of 40-50 mg/mL for less than 5 h.
Oxygen consumption rates of heart mitochondria (0.1 mg/mL), incubated in the absence or presence of AOL at increasing doses (from 0 to 80 μM final concentration), were recorded polarographically under constant stirring at 25° C. using a high resolution oximeter (Oxygraph-2K, Oroboros Instruments, Austria). The respiration medium consisted in 140 mM sucrose, 100 mM KCl, 1 mM EGTA, 20 mM MgCl2, 10 mM KH2PO4, and 1 g/L (w/v) BSA essentially fatty acid free (pH 7.2).
This has been carried out by using the now classical oxygraph method. Mitochondria were first incubated with various AOL concentrations (5 to 80 μM) then respiratory substrate was added (substrate state, black curve), followed by a saturating ADP concentration to get the maximal oxidative phosphorylation rate (grey curve), and finally the addition of atractyloside (ATR) which inhibits the ADP/ATP translocator and gives the mitochondrial leak rate under non-phosphorylating conditions (FIG. 1A). The other panels of FIG. 1B-D presents the results obtained with different respiratory substrate combinations: glutamate+malate which feed electrons to complex I, succinate (+rotenone) for complex II and glutamate+malate+succinate to feed electrons to both complexes. […]

[2] = tested on: normoxic, chronic hypoxic and monocrotaline-treated rats; experiment: Pulmonary hypertension rat models (chronic hypoxia, monocrotaline); format: in vivo
Experimental: Male Wistar rats (300-400 g) were separated into 3 groups and used 4 weeks later: • the first group (control or normoxic rats—N rats) was housed in ambient room air; • the second group (chronic hypoxic rats—CH rats) was exposed to chronic hypoxia for 3 weeks in a hypobaric chamber (50 kPa), and • the third group (MCT rats) was injected with a single intraperitoneal dose of monocrotaline at a dose of 60 mg/kg. MCT (Sigma, St Quentin Fallavier, France) was dissolved in an equal volume of HCl ([…]) and NaOH ([…]).
In each group, some animals were treated with AOL (Sulfarlem, EG Labo Eurogenerics. Crushed tablets mixed with food, fed ad libitum) and some other animals were untreated. Eaten food was weighed every day to estimate the AOL dose administered. 10 mg/kg/day was thus administered during the 3 weeks of experiment for the second and third groups.
Pulmonary hypertension was assessed by measuring both the mean pulmonary arterial pressure (mPAP) and right ventricle hypertrophy. To measure PAP, N, CH and MCT rats were anesthetized with pentobarbital sodium (Centravet) by intraperitoneal injection (60 mg/kg) and mPAP was measured, in closed-chest rats, through a catheter inserted in the right jugular vein, then through the right atria and the right ventricle into the pulmonary artery, and attached to a Baxter Uniflow gauge pressure transducer.
Right ventricle hypertrophy was estimated by the ratio of right ventricle (RV) to left ventricle plus septum (LV+S) weight (Fulton index).
Pulmonary arteries (PA) remodeling was assessed by measuring the percentage of the PA medial thickness from sections of paraffin-embedded lung. Lung sections were first stained with hematoxylin and eosin (VWR) according to common histological procedure.

[3] = stated as known; cited from earlier work

SMILES: COc1ccc(-c2cc(=S)ss2)cc1 [AOL, 5-(4-methoxyphenyl)-3H-1,2-dithiole-3-thione]
- ROS/H2O2 production by NAD(P)H oxidase (NAD(P)H oxidase): does not inhibit
- mitochondrial oxidative phosphorylation and inner membrane integrity (leak rate, after ATR addition) [1]: absence of effect
- mitochondrial respiration under the different energetic states ([1]; glutamate and malate): no statistical differences
- mitochondrial respiration under the different energetic states ([1]; glutamate, malate and succinate): no statistical differences
- mitochondrial respiration under the different energetic states ([1]; succinate (+rotenone)): no statistical differences
- reduction of pulmonary arteries remodeling (printed: pulmonary arteries diameter) ([2]; CH rats, oral 10 mg/kg/day): ~30%
- mean pulmonary arterial pressure (mPAP) ([2]; CH rats, oral 10 mg/kg/day, 3 weeks): even more significantly
- mean pulmonary arterial pressure (mPAP) ([2]; MCT rats, oral 10 mg/kg/day, 3 weeks): decreased
- mean pulmonary arterial pressure (mPAP) ([2]; normoxic (N) rats): no significant effect
- Fulton index (right ventricular hypertrophy) ([2]; oral 10 mg/kg/day): no effect
- bioavailability [3]: very short

From patent US11318113B2, “Compounds for the treatment of diseases linked to mitochondrial reactive oxygen species (ROS) production” (OP2 DRUGS, priority 2015, dated 2022)
